As usually defined, the IC50 is the concentration that gives 50% inhibition. Higher therefore signals weaker potency in that assay.

For three compounds, IC50 results are on record in patent US20060281700A1, “SYNERGISTIC MODULATION OF FLT3 KINASE USING AMINOPYRIMIDINES KINASE MODULATORS” (priority 2005, published 2006).

For the assay, the target named is T1, wild-type FLT3 phosphorylation in Baf3 FLT3 cells (Homo sapiens, UniProt P36888).
T1 sequence (P36888 27-993): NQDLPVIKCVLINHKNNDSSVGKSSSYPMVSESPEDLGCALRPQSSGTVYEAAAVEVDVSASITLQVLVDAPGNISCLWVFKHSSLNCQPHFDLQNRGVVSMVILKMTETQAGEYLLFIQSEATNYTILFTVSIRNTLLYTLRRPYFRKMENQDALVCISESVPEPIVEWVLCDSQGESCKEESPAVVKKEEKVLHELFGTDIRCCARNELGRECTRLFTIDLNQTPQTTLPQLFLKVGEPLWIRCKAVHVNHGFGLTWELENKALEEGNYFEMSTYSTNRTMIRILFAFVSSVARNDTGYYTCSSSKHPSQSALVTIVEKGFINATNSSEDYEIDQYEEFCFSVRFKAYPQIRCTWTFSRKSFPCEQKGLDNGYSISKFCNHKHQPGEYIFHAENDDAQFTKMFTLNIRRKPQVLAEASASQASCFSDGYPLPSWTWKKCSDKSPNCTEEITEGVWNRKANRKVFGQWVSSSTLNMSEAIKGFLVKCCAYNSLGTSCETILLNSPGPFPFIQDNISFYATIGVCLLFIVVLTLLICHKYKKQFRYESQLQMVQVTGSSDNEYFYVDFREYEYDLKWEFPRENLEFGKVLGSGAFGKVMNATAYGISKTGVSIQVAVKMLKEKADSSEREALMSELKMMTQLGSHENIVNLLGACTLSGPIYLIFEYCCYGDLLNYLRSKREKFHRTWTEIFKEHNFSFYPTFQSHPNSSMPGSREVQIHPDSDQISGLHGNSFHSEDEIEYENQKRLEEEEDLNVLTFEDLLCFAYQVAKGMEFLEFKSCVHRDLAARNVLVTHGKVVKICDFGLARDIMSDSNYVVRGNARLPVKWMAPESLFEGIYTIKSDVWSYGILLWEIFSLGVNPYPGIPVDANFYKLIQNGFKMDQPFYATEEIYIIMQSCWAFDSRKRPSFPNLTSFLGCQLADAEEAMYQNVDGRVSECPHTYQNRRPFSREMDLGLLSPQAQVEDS
As to the kind of experiment: Cell-Based FLT3 Receptor Elisa. The note with it: 1 hour compound, 100 ng/mL Flt ligand 10 min; uncertainty ±20%. Here is the method:
Cell-Based FLT3 Receptor Elisa
Specific cellular inhibition of FLT ligand-induced wild-type FLT3 phosphorylation was measured in the following manner: Baf3 FLT3 cells overexpressing the FLT3 receptor were obtained from Dr. Michael Heinrich (Oregon Health and Sciences University). The Baf3 FLT3 cell lines were created by stable transfection of parental Baf3 cells (a murine B cell lymphoma line dependent on the cytokine IL-3 for growth) with wild-type FLT3. Cells were selected for their ability to grow in the absence of IL-3 and in the presence of FLT3 ligand.
Baf3 cells were maintained in RPMI 1640 with 10% FBS, penn/strep and 10 ng/ml FLT ligand at 37° C., 5% CO2. To measure direct inhibition of the wild-type FLT3 receptor activity and phosphorylation a sandwich ELISA method was developed similar to those developed for other RTKs (see Sadick, M D, Sliwkowski, M X, Nuijens, A, Bald, L, Chiang, N, Lofgren, J A, Wong W L T. Analysis of Heregulin-Induced ErbB2 Phosphorylation with a High-Throughput Kinase Receptor Activation Enzyme-Linked Immunsorbent Assay, Analytical Biochemistry. 1996; 235:207-214 and Baumann C A, Zeng L, Donatelli R R, Maroney A C. Development of a quantitative, high-throughput cell-based enzyme-linked immunosorbent assay for detection of colony-stimulating factor-1 receptor tyrosine kinase inhibitors. J Biochem Biophys Methods. 2004; 60:69-79.). 200 μL of Baf3FLT3 cells (1×10^6/mL) were plated in 96 well dishes in RPMI 1640 with 0.5% serum and 0.01 ng/mL IL-3 for 16 hours prior to 1 hour compound or DMSO vehicle incubation. Cells were treated with 100 ng/mL Flt ligand (R&D Systems Cat# 308-FK) for 10 min. at 37° C. Cells were pelleted, washed and lysed in 100 ul lysis buffer (50 mM Hepes, 150 mM NaCl, 10% Glycerol, 1% Triton-X-100, 10 mM NaF, 1 mM EDTA, 1.5 mM MgCl2, 10 mM NaPyrophosphate) supplemented with phosphatase (Sigma Cat# P2850) and protease inhibitors (Sigma Cat #P8340). Lysates were cleared by centrifugation at 1000×g for 5 minutes at 4° C. Cell lysates were transferred to white wall 96 well microtiter (Costar #9018) plates coated with 50 ng/well anti-FLT3 antibody (Santa Cruz Cat# sc-480) and blocked with SeaBlock reagent (Pierce Cat#37527). Lysates were incubated at 4° C. for 2 hours. Plates were washed 3× with 200 ul/well PBS/0.1% Triton-X-100. Plates were then incubated with 1:8000 dilution of HRP-conjugated anti-phosphotyrosine antibody (Clone 4G10, Upstate Biotechnology Cat#16-105) for 1 hour at room temperature. Plates were washed 3× with 200 ul/well PBS/0.1% Triton-X-100. Signal detection with Super Signal Pico reagent (Pierce Cat#37070) was done according to manufacturer's instruction with a Berthold microplate luminometer. All data points are an average of triplicate samples. […] Inhibition and IC50 data analysis was done with GraphPad Prism using a non-linear regression fit with a multiparamater, sigmoidal dose-response (variable slope) equation.
`CO/N=C/c1c(N)ncnc1N1CCC(NC(=O)Nc2ccc(N3CCOCC3)cc2)CC1` [Number 14, 1-{1-[6-Amino-5-(methoxyimino-methyl)-pyrimidin-4-yl]-piperidin-4-yl}-3-(4-morpholin-4-yl-phenyl)-urea]: the concentration for half-maximal inhibition (IC50) was determined as 292 nM.

`CO/N=C/c1c(N)ncnc1N1CCC(NC(=O)Nc2ccc(Cl)cc2)C1` (stereo not drawn) [Number 18, 1-{1-[6-Amino-5-(methoxyimino-methyl)-pyrimidin-4-yl]-pyrrolidin-3-yl}-3-(4-chloro-phenyl)-urea] showed an IC50 of 309 nM.

As to `CO/N=C/c1c(N)ncnc1N1CCC(NC(=O)Nc2ccc(N3CCCCC3)cc2)C1` (stereo not drawn) [Number 9, 1-{1-[6-Amino-5-(methoxyimino-methyl)-pyrimidin-4-yl]-pyrrolidin-3-yl}-3-(4-piperidin-1-yl-phenyl)-urea], the midpoint of inhibition, the IC50, lay at 127 nM.
